The source of these data is patent publication EP0539204B1 (priority 1991, dated 1993).

In brackets after ≈: the same amount, converted by molar mass. A value given as a limit tells only on which side of the number the result lay.

The target of assay [1] is N2 influenza neuraminidase (Influenza A virus, UniProt Q91MA2). Kind of assay: biochemical. The following applies: for NA1: pH 6.5. The class given is biochemical, influenza virus (virion X31).
For assay [2], the system named is influenza A/Singapore/1/57 (H2N2). Kind of assay: microbe, parasite or virus in culture. It counts as cell-based. The following applies: for I50 Plaque Assay Flu A: reduction of viral plaque formation in MDCK cells, 3 days at 37°C; for IC50: Influenza A virus, H2N2, MDCK, 72 h, read-out: I50 Plaque Assay Flu A.
Assay [3] relates to influenza B/Victoria/102/85. Kind of assay: microbe, parasite or virus in culture. It counts as cell-based. The following applies: for IC50: Influenza B virus, MDCK, 72 h, read-out: I50 Plaque Assay Flu B.

Chain of N2 influenza neuraminidase (Q91MA2 whole entry, looked up): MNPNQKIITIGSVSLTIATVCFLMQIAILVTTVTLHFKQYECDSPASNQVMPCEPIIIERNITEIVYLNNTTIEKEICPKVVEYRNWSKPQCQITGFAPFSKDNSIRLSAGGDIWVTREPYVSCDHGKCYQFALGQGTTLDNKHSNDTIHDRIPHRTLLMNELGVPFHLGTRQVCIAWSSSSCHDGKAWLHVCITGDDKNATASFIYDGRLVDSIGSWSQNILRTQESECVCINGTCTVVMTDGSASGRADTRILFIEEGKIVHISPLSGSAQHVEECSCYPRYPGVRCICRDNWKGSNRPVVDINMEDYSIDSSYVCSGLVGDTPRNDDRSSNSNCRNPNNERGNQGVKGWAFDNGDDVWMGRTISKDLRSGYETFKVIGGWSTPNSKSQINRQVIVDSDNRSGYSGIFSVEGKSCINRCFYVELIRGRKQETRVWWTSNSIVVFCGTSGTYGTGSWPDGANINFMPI

The compound “5-(Acetylamino)-4-[[amino(aminoimino)methyl]amino]-2,6-anhydro-3,4,5-trideoxy-D-glycero-D-galacto-non-2-enonic acid [Example 1]” gave an NA1 in assay [1] of 1.3 µg/mL. Moreover, the “I50 Plaque Assay Flu A” value in assay [2] was 2.9 µg/mL. For the same compound, the “I50 Plaque Assay Flu B” value in assay [3] is 3.0 µg/mL.
Compound “5-(Acetylamino)-4-[[amino(hydroxyimino)methyl]amino]-2,6-anhydro-3,4,5-trideoxy-D-glycero-D-galacto-non-2-enonic acid [Example 2]” displayed an NA1 in assay [1] of 0.6 µg/mL. Also, the “I50 Plaque Assay Flu A” value in assay [2] worked out at 0.1 µg/mL. Further, the “I50 Plaque Assay Flu B” value in assay [3] is under 0.1 µg/mL.
Regarding `CNC(=N)N[C@H]1C=C(C(=O)O)O[C@@H]([C@H](O)[C@H](O)CO)[C@@H]1NC(C)=O` [Example 3, 5-(Acetylamino)-4-[[amino(methylimino)methyl]amino]-2,6-anhydro-3,4,5-trideoxy-D-glycero-D-galacto-non-2-enonic acid], the IC50 in assay [1] was 12.1 µM; in assay [2], 3 µg/mL (≈ 8.66 µM).
For `CC(=O)N[C@H]1[C@H]([C@H](O)[C@H](O)CO)OC(C(=O)O)=C[C@@H]1NC(=N)N[N+](=O)[O-]` [Example 4, 5-(Acetylamino)-4-[[amino(nitroimino)methyl]amino]-2,6-anhydro-3,4,5-trideoxy-D-glycero-D-galacto-non-2-enonic acid], the results for the IC50 in assay [1], in assay [2] and in assay [3] were 2.65 µM, 30 µg/mL (≈ 79.5 µM) and 24 µg/mL (≈ 63.6 µM), respectively.
For `CCOC(=O)NC(=N)N[C@H]1C=C(C(=O)O)O[C@@H]([C@H](O)[C@H](O)CO)[C@@H]1NC(C)=O` [Example 5, 5-(Acetylamino)-4-[[amino(ethoxycarbonylimino)methyl]amino]-2,6-anhydro-3,4,5-trideoxy-D-glycero-D-galacto-non-2-enonic acid] the same measures were 17.1 µM, 1.7 µg/mL (≈ 4.2 µM) and 0.6 µg/mL (≈ 1.48 µM).
